SMILES strings stand for the structures.

Data set [1] in a line: Interfacial tension (polarity index) of emollients, Tensimat Densimat TD2000. The class given is physicochemical. As to conditions: interfacial tension oil/water. An excerpt: The term “polarity index” refers to non-polar or polar oils. Non-polar oils are mainly based on hydrocarbons and lack an electronegative element, such as oxygen. In contrast, polar oils contain heteroatoms that differ in electronegativity, which results in a dipole moment. However, such oils are still insoluble in water, i.e. hydrophob. The polarity index can be determined by measuring the interfacial tension between the respective oil and water.
Interfacial tension of the respective emollients as listed below was measured using a Tensimat Densimat TD2000.

The conditions of data set [2]: general description of the commercial UV filter; cited from earlier work.

As to `O1[SiH2]O[SiH2]O[SiH2]O[SiH2]O[SiH2]1` (centres unmarked) [cyclopentasiloxane], the polarity index in data set [1] was 32 mN/m.

`CCCCC(CC)COC(=O)c1ccc(Nc2nc(Nc3ccc(C(=O)NC(C)(C)C)cc3)nc(Nc3ccc(C(=O)OCC(CC)CCCC)cc3)n2)cc1` (centres unmarked) [diethylhexyl-butamidotriazone, 4,4′-[[6-[[4-[[(1,1-dimethylethyl)amino]carbonyl]phenyl]amino]-1,3,5-triazin-2,4-diyl]diimino]bis-benzoic acid-bis(2-ethylhexyl)ester]: the absorption maximum in data set [2] is 310 nm.
